Article PMC3448830 (Bioorganic & medicinal chemistry, 2012)

Legend:
GABA-AT = GABA-AT (Sus scrofa, UniProt P80147); assay: Substrate activity for GABA-AT; format: biochemical, pig; conditions: for Km: substrate, Hanes-Woolf plots, pH 8.5, room temperature, 16 h
[1] = following chronic administration; cited from earlier work

Sequence of GABA-AT (P80147 29-500): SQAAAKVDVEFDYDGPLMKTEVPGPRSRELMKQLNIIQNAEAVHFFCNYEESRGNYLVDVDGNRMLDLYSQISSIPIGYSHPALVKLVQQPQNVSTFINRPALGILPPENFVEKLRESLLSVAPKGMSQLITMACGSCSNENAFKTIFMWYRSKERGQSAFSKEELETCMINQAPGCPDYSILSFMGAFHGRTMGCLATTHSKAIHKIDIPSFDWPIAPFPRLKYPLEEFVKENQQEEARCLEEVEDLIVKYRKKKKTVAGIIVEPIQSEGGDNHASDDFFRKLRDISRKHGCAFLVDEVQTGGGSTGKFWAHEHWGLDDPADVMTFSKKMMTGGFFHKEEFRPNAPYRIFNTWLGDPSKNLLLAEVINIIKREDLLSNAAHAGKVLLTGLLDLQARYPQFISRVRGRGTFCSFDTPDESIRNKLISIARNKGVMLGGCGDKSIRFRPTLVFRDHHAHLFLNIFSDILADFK

## Cl.NCc1ccc(C(=O)O)[nH]1 [Compound 4c]
GABA-AT
  Km: much higher

## Cl.NCc1ccc(C(=O)O)o1 [Compound 4a, 5-(Aminomethyl)furan-2-carboxylic acid hydrochloride]
GABA-AT; substrate efficiency
  kcat/Km: highest kcat/Km value

## C=CC(N)CCC(=O)O (centres unmarked) [Compound 1, 4-aminohex-5-enoic acid]
[1]
  patients exhibiting irreversible abnormalities in peripherial vision: 25–50%

## Cl.NCc1cscc1C(=O)O [Compound 6b, 4-(Aminomethyl)thiophene-3-carboxylic acid hydrochloride]
GABA-AT
  substrate activity (transamination): Transamination was observed
  Km: > 10 mM

## Cl.NCc1coc(C(=O)O)c1 [Compound 5a, 4-(Aminomethyl)furan-2-carboxylic acid hydrochloride]
GABA-AT; relative to GABA
  Km, fold lower than that of GABA: approximately 4 fold

## Cl.[2H]C([2H])(N)c1coc(C(=O)O)c1 [[D2]-5a]
GABA-AT; [D2]-5a evaluated alongside unlabeled 5a
  ^Hk/^Dk for substrate turnover (kinetic isotope effect): 1.22 ± 0.07

## Cl.NCc1ccc(C(=O)O)s1 [Compound 4b, 5-(Aminomethyl)thiophene-2-carboxylic acid hydrochloride]
GABA-AT
  Km: much higher
